From US8329645B2, “Polymyxin derivatives and uses thereof” (priority 2008, dated 2012)
Values joined by “and” are separate entries in the source; they are usually repeats but may differ in a detail not shown here. Equal entries are not always repeated.

Assays:
[1] = test system: E. coli IH3080; assay: Growth inhibition around wells on LB agar plates; format: cell-based, Escherichia coli; details: 10 μg of compound per well
In short: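 Growth inhibition of encapsulated E. coli IH3080 (K1:O018) was assessed on LB agar plates. A suspension of about 10^8 cells/ml in 0.9% NaCl, made from an overnight LB agar culture, was spread across the plate surface and the excess removed. After drying, 2 mm wells were drilled, with 0.9% NaCl as control. Following 18 h at 37° C., inhibition zone diameters around wells were converted to areas in square mm.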

[2] = test system: K. pneumoniae ATCC13883; assay: Growth inhibition around wells on LB agar plates; format: cell-based, Klebsiella pneumoniae
Method: (§1) From an overnight-grown culture of IH3080 on LB agar, a suspension of approx. 10^8 cells/ml was prepared in 0.9% NaCl. Aliquots of this suspension were then pipetted on the agar plates and the plates were gently shaken to spread the suspension evenly on the entire surface of the plate. Thereafter, the unabsorbed part of the suspension was removed by using a Pasteur pipette. After the surface had dried, small wells (diameter, 2 mm) were drilled on the plates (five wells per plate) by using a sterile sharp-edged narrow metal tube, single-use pipette tip, and vacuum suction. An alternative method used a swab to spread the inoculum. Samples (4 μl and 10 μl) of the peptide solution in 0.9% NaCl (at concentrations of 1 μg/ml and 0.1 μg/ml) were then pipetted to the wells and the sample fluids were allowed to absorb. Controls included 0.9% NaCl solution without the compound to be tested. The plates were then incubated for 18 h at 37° C. whereafter the diameters of growth inhibition zones around each well were measured; the diameter of the well itself was not reduced. Finally, the diameters were converted to surface areas of growth inhibition (in square mm).
(§2) The susceptibility of eleven Gram-negative bacterial strains (nine different species) to NAB734 and polymyxin B was compared by using the susceptibility determination method described in Example 2. The strains included those belonging to the species of Serratia marcescens and Proteus mirabilis, both species generally known to be resistant to polymyxin. Furthermore, the susceptibility determination was also performed by using the Gram-positive bacterium, Staphylococcus aureus, also generally known to be polymyxin-resistant. Ten of the strains originated from ATCC (American Type Culture Collection, Manassas, Va., U.S.A.), and one from CCUG (Culture Collection of University of Gothenburg, Sweden). The source of E. coli IH3080 has been described in Example 2. Polymyxin B sulfate was from Sigma-Aldrich (St. Louis, Mo., USA).

[3] = test system: K. pneumoniae CCUG45421; assay: Growth inhibition around wells on LB agar plates; format: cell-based, Klebsiella pneumoniae
Method: as §1, §2

[4] = test system: P. mirabilis ATCC29906; assay: Growth inhibition around wells on LB agar plates; format: cell-based, Proteus mirabilis
Method: as §1, §2

[5] = test system: S. marcescens ATCC8100; assay: Growth inhibition around wells on LB agar plates; format: cell-based, Serratia marcescens
Method: as §1, §2

[6] = test system: E. cloacae ATCC23355; assay: Growth inhibition around wells on LB agar plates; format: cell-based, Enterobacter cloacae
Method: as §1, §2

[7] = test system: A. baumannii ATCC 19606; assay: Sensitization to rifampin: growth inhibition around wells on LB plates containing rifampin; format: cell-based, Acinetobacter baumannii; details: 4 μg
[8] = test system: Pseudomonas aeruginosa ATCC 27853; assay: Growth inhibition around wells on LB agar plates; format: cell-based; details: Ps. aeruginosa ATCC 27853
In short: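 Activity against Pseudomonas aeruginosa ATCC 27853 was assessed by agar well diffusion on LB plates. A suspension of about 10^8 cells/ml in 0.9% NaCl was spread over the agar and the excess removed. Once the surface had dried, 2 mm wells were drilled and filled with peptide dissolved in 0.9% NaCl. Plates were incubated 18 h at 37° C, and inhibition zone diameters were converted to areas in square mm.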

[9] = test system: S. aureus ATCC 25923; assay: Growth inhibition around wells on LB agar plates; format: cell-based, Staphylococcus aureus
Method: as §1, §2

[10] = test system: E. coli IH3080; assay: Sensitization to rifampin: growth inhibition around wells on LB plates containing rifampin; format: cell-based, Escherichia coli; details: 4 μg of compound
[11] = test system: K. oxytoca ATCC13182; assay: Growth inhibition around wells on LB agar plates; format: cell-based, Klebsiella oxytoca
Method: as §1, §2

[12] = test system: E. coli ATCC25922; assay: Growth inhibition around wells on LB agar plates; format: cell-based, Escherichia coli
Method: as §1, §2

[13] = test system: Acinetobacter baumannii ATCC 19606; assay: Growth inhibition around wells on LB agar plates; format: cell-based; details: A. baumannii ATCC 19606
[14] = test system: Ps. aeruginosa ATCC 27853; assay: Sensitization to rifampin: growth inhibition around wells on LB plates containing rifampin; format: cell-based, Pseudomonas aeruginosa; details: 4 μg
[15] = test system: C. freundii ATCC8090; assay: Growth inhibition around wells on LB agar plates; format: cell-based, Citrobacter freundii
Method: as §1, §2

[16] = test system: E. coli (ATCC25922 and IH3080), K. pneumoniae ATCC13883, and E. cloacae ATCC23355; assay: E-test sensitization by NAB7061, range over the tested strains; format: cell-based; details: four tested strains
Method: (§3) MICs were determined by using E-strips (Biodisk Ltd., Solna, Sweden) according to the manufacturer's instructions.

[17] = test system: E. coli IH3080 (K1:O18); assay: Experimental E. coli peritonitis model in mice (Example 12); format: in vivo
Method: A suspension of E. coli IH3080 (K1:O18) in saline (0.9% NaCl) was prepared from an overnight culture on a blood agar plate (Statens Serum Institut, Copenhagen, Denmark). All mice (female NMR1 from Harlan Scandinavia, Allerød, Denmark; weight, 25-30 g) were inoculated intraperitoneally with 0.5 ml of the suspension containing 0.96×10^6 CFU per ml in the lateral lower quadrant of the abdomen. At 1 h, the CFU count was determined from three mice and the remaining mice (four mice per group) were treated with a subcutaneous injection of 0.2 ml of erythromycin solution in saline (corresponding to 5 mg/kg body weight) or NAB7061 solution in saline (corresponding to 5 mg/kg body weight), or both erythromycin and NAB7061 (corresponding to 5 mg/kg body weight of both drugs; given at two separate sites). Control group received two 0.2 ml injections of saline. At 4.5 h postinfection, all mice were anaesthetized with CO2 and sacrificed. Sterile saline (2 ml) was injected intraperitoneally and the abdomen was gently massaged before it was opened and the fluid sampled. Appropriate dilutions of the fluid were plated on blood agar plates, the plates were incubated overnight, and the colonies were counted.

[18] = test system: E. coli ATCC25922; details: E. coli ATCC25922
Method: as §3
(§4) The strains originated from ATCC (11 strains), CCUG (11 strains), and NCTC (The National Collection of Type Cultures, Colindale, U.K.; 2 strains). Eight strains (the F-strains) were purchased from Mobidiag Ltd., Helsinki, Finland.

[19] = test system: K. pneumoniae ATCC13883; details: K. pneumoniae ATCC13883
Method: as §3, §4

[20] = test system: E. coli IH3080; assay: E-test MIC with or without NAB7061 (4 μg/ml), Mueller-Hinton agar; format: cell-based, Escherichia coli
Method: as §3, §4

[21] = test system: E. cloacae ATCC23355; assay: as above; format: cell-based, Enterobacter cloacae
Method: as §3, §4

**Q.** What does the source list for “OA-Thr-DSer-cy[Dab-Dab-DPhe-Thr-Dab-Dab-Thr-] [NAB 734]”?
**A.** growth inhibition around a well [1]: 177 square millimeters; growth inhibition around a well ([2]; 4 μg): 64 square millimeters; growth inhibition around a well ([2]; 10 μg): 113 square millimeters; growth inhibition around a well ([3]; 4 μg): 64 square millimeters; growth inhibition around a well ([3]; 10 μg): 104 square millimeters; growth inhibition around a well ([4]; 4 μg): 0 square millimeters; growth inhibition around a well ([4]; 10 μg): 0 square millimeters; growth inhibition around a well ([5]; 4 μg): 0 square millimeters; growth inhibition around a well ([5]; 10 μg): 0 square millimeters; growth inhibition around a well ([6]; 4 μg): 133 square millimeters; growth inhibition around a well ([6]; 10 μg): 177 square millimeters; growth inhibition around a well in the presence of rifampin ([7]; rifampin 0 μg/ml): 38 square millimeters; growth inhibition around a well in the presence of rifampin ([7]; rifampin 0.1 μg/ml): 201 square millimeters; growth inhibition around a well in the presence of rifampin ([7]; rifampin 0.3 μg/ml): 283 square millimeters; growth inhibition around a well ([8]; 4 μg): 13 square millimeters; growth inhibition around a well ([8]; 10 μg): 50 square millimeters; growth inhibition around a well ([9]; 4 μg): 0 square millimeters; growth inhibition around a well ([9]; 10 μg): 0 square millimeters; growth inhibition around a well in the presence of rifampin ([10]; rifampin 0 μg/ml): 113 square millimeters; growth inhibition around a well in the presence of rifampin ([10]; rifampin 0.1 μg/ml): 154 square millimeters; growth inhibition around a well in the presence of rifampin ([10]; rifampin 1.0 μg/ml): 201 square millimeters; growth inhibition around a well ([11]; 4 μg): 95 square millimeters; growth inhibition around a well ([11]; 10 μg): 143 square millimeters; growth inhibition around a well ([12]; 4 μg): 133 square millimeters; growth inhibition around a well ([12]; 10 μg): 177 square millimeters; growth inhibition around a well ([13]; 4 μg): 38 square millimeters and 57 square millimeters; growth inhibition around a well ([13]; 10 μg): 95 square millimeters and 79 square millimeters; growth inhibition around a well in the presence of rifampin ([14]; rifampin 0 μg/ml): 13 square millimeters; growth inhibition around a well in the presence of rifampin ([14]; rifampin 0.3 μg/ml): 20 square millimeters; growth inhibition around a well ([15]; 4 μg): 133 square millimeters; growth inhibition around a well ([15]; 10 μg): 177 square millimeters

**Q.** Which results are given for `CC[C@H]1OC(=O)[C@H](C)[C@@H](O[C@H]2C[C@@](C)(OC)[C@@H](O)[C@H](C)O2)[C@H](C)[C@@H](O[C@@H]2O[C@H](C)C[C@H](N(C)C)[C@H]2O)[C@](C)(O)C[C@@H](C)C(=O)[C@H](C)[C@@H](O)[C@]1(C)O` [Erythromycin]?
**A.** Sensitization factor to antibiotic at 4 μg/ml of NAB7061, range over the tested strains [16]: 21-48; CFU counts in peritoneal fluid ([17]; 4.5 h postinfection ([…] after treatment), 5 mg/kg subcutaneous): 8.9 (±6.4)×10^6 per ml; factor by which the bacterial count increased ([17]; from 1 h to 4.5 h postinfection): 12; Sensitization factor to antibiotic (MIC without / with 4 μg/ml of NAB 7061) [18]: 32-48; Sensitization factor to antibiotic (MIC without / with 4 μg/ml of NAB 7061) [19]: 24-48; Sensitization factor to antibiotic (MIC without / with 4 μg/ml of NAB 7061) [20]: 32-42; Sensitization factor to antibiotic (MIC without / with 4 μg/ml of NAB 7061) [21]: 21-43
